# Measured values published in patent US12421240B2, “Hydropyrazino[1,2-d][1,4]diazepine compounds for the treatment of autoimmune disease” (Hoffmann-La Roche Inc., priority 2019, dated 2025).
# Target: T1, human TLR7 (Homo sapiens, UniProt Q9NYK1)
# T1 sequence (Q9NYK1 27-1049): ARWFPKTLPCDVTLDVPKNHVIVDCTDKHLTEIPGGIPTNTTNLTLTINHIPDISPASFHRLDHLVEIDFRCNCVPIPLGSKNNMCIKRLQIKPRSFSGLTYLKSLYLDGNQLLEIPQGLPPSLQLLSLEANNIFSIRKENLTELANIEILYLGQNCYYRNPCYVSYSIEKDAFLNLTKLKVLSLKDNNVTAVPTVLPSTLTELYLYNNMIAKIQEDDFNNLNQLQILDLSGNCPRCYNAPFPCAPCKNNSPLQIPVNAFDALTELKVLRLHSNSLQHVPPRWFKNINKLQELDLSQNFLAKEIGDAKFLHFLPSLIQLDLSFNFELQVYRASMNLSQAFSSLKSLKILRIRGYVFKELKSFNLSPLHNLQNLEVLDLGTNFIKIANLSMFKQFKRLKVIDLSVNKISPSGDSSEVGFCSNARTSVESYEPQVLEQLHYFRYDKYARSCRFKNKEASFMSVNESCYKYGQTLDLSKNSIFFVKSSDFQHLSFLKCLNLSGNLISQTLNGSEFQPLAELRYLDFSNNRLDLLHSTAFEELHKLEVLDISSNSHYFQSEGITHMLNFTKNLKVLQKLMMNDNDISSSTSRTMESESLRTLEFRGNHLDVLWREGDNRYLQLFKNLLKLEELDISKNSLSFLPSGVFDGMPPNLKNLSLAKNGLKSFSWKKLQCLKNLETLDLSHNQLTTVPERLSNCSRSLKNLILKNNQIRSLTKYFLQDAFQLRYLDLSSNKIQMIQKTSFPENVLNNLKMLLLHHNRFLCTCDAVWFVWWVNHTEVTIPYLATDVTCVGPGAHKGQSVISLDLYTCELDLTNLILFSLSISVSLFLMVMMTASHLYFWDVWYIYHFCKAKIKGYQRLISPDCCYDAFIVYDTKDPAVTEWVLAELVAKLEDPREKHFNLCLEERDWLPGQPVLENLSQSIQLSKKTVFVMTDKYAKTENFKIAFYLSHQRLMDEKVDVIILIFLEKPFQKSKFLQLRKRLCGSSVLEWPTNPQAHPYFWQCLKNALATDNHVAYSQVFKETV
# Assay: HEK293-Blue-hTLR-7 cells assay (SEAP reporter, R848 stimulation)
# Type: cell-based
# Conditions: HEK293-Blue-hTLR7 cells, R848 ligand, 20 hrs; read-out: HEK/hTLR7 IC50
# Experimental: The following tests were carried out in order to determine the activity of the compounds of formula (I), (Ia) or (Ib) in HEK293-Blue-hTLR-7/8/9 cells assay.
# HEK293-Blue-hTLR-7 Cells Assay:
# A stable HEK293-Blue-hTLR-7 cell line was purchased from InvivoGen (Cat. #: hkb-htlr7, San Diego, California, USA). These cells were originally designed for studying the stimulation of human TLR7 by monitoring the activation of NF-κB. A SEAP (secreted embryonic alkaline phosphatase) reporter gene was placed under the control of the IFN-β minimal promoter fused to five NF-κB and AP-1-binding sites. The SEAP was induced by activating NF-κB and AP-1 via stimulating HEK-Blue hTLR7 cells with TLR7 ligands. Therefore the reporter expression was declined by TLR7 antagonist under the stimulation of a ligand, such as R848 (Resiquimod), for incubation of 20 hrs. The cell culture supernatant SEAP reporter activity was determined using QUANTI-Blue™ kit (Cat. #: rep-qb1, Invivogen, San Diego, Ca., USA) at a wavelength of 640 nm, a detection medium that turns purple or blue in the presence of alkaline phosphatase.
# HEK293-Blue-hTLR7 cells were incubated at a density of 250,000-450,000 cells/mL in a volume of 170 μL in a 96-well plate in Dulbecco's Modified Eagle's medium (DMEM) containing 4.5 g/L glucose, 50 U/mL penicillin, […], […], 2 mM L-glutamine, 10% (v/v) heat-inactivated fetal bovine serum with addition of 20 μL test compound in a serial dilution in the presence of final DMSO at 1% and 10 μL of 20 uM R848 in above DMEM, perform incubation under 37° C. in a CO2 incubator for 20 hrs. Then 20 μL of the supernatant from each well was incubated with 180 μL Quanti-blue substrate solution at 37° C. for 2 hrs and the absorbance was read at 620655 nm using a spectrophotometer. The signaling pathway that TLR7 activation leads to downstream NF-κB activation has been widely accepted, and therefore similar reporter assay was modified for evaluating TLR7 antagonist.
row,IC50 [nM],Structure (SMILES)
1,1.6,"C[C@@H]1CN(c2ccc(C#N)c3ncccc23)C[C@@H]2CCN(Cc3ccc(N4C[C@@H](N)[C@@H](F)C4)cn3)CCN21 [Example 20, 5-[(4R,10aS)-8-[[5-[(3R,4S)-3-amino-4-fluoro-pyrrolidin-1-yl]-2-pyridyl]methyl]-4-methyl-1,3,4,6,7,9,10,10a-octahydropyrazino[1,2-d][1,4]diazepin-2-yl]quinoline-8-carbonitrile]"
2,59.9,"C[C@@H]1CN(c2ccc(C#N)c3ncccc23)C[C@@H]2CCN(Cc3ccc(N4CCOC[C@H](N)C4)cn3)CCN21 [Example 21, 5-[(4R,10aS)-8-[[5-[(6R)-6-amino-1,4-oxazepan-4-yl]-2-pyridyl]methyl]-4-methyl-1,3,4,6,7,9,10,10a-octahydropyrazino[1,2-d][1,4]diazepin-2-yl]quinoline-8-carbonitrile]"
3,4.9,"CO[C@@H]1CN(c2ccc(CN3CC[C@H]4CN(c5ccc(C#N)c6ncccc56)C[C@@H](C)N4CC3)nc2)C[C@H]1N [Example 22, 5-[(4R,10aS)-8-[[5-[(3R,4R)-3-amino-4-methoxy-pyrrolidin-1-yl]-2-pyridyl]methyl]-4-methyl-1,3,4,6,7,9,10,10a-octahydropyrazino[1,2-d][1,4]diazepin-2-yl]quinoline-8-carbonitrile]"
4,2.9,"C[C@@H]1CN(c2ccc(C#N)c3ncccc23)C[C@@H]2CCN(Cc3ncc(N4CCNCC4)cc3F)CCN21 [Example 23, 5-[(4R,10aS)-8-[(3-fluoro-5-piperazin-1-yl-2-pyridyl)methyl]-4-methyl-1,3,4,6,7,9,10,10a-octahydropyrazino[1,2-d][1,4]diazepin-2-yl]quinoline-8-carbonitrile]"
5,3.2,"CO[C@@H]1CN(c2cnc(CN3CC[C@H]4CN(c5ccc(C#N)c6ncccc56)C[C@@H](C)N4CC3)c(F)c2)C[C@H]1N [Example 24, 5-[(4R,10aS)-8-[[5-[(3R,4R)-3-amino-4-methoxy-pyrrolidin-1-yl]-3-fluoro-2-pyridyl]methyl]-4-methyl-1,3,4,6,7,9,10,10a-octahydropyrazino[1,2-d][1,4]diazepin-2-yl]quinoline-8-carbonitrile]"
6,35.8,"CO[C@@H]1CN(c2cnc(CN3CC[C@H]4CN(c5ccc(C#N)n6nccc56)C[C@@H](C)N4CC3)c(F)c2)C[C@H]1N [Example 26, 4-[(4R,10aS)-8-[[5-[(3R,4R)-3-amino-4-methoxy-pyrrolidin-1-yl]-3-fluoro-2-pyridyl]methyl]-4-methyl-1,3,4,6,7,9,10,10a-octahydropyrazino[1,2-d][1,4]diazepin-2-yl]pyrazolo[1,5-a]pyridine-7-carbonitrile]"
7,8.5,"CO[C@@H]1CN(c2cnc(CN3CC[C@H]4CN(c5ccc(C#N)n6ncc(F)c56)C[C@@H](C)N4CC3)c(F)c2)C[C@H]1N [Example 27, 4-[(4R,10aS)-8-[[5-[(3R,4R)-3-amino-4-methoxy-pyrrolidin-1-yl]-3-fluoro-2-pyridyl]methyl]-4-methyl-1,3,4,6,7,9,10,10a-octahydropyrazino[1,2-d][1,4]diazepin-2-yl]-3-fluoro-pyrazolo[1,5-a]pyridine-7-carbonitrile]"
8,36.3,"C[C@@H]1CN(c2cc(=O)n(C)c3ncccc23)C[C@@H]2CCN(Cc3ccc4c(c3)CNCC4)CCN21 [Example 28, 4-[(4R,10aS)-4-methyl-8-(1,2,3,4-tetrahydroisoquinolin-7-ylmethyl)-1,3,4,6,7,9,10,10a-octahydropyrazino[1,2-d][1,4]diazepin-2-yl]-1-methyl-1,8-naphthyridin-2-one]"
